The text below walks through data of US10100057B2, “Imidazopyrimidine and imidazotriazine derivative, and pharmaceutical composition comprising the same” (SK BIOPHARMACEUTICALS CO., LTD., priority 2016, dated 2018).

Bounds are passed on as bounds.

The assay concerns the target human mGluR5 receptor (Homo sapiens (Human), UniProt P41594). Nature of the assay: Calcium influx assay based on fluorescence (mGluR5 positive allosteric modulator activity). As to conditions: human mGluR5 receptor-overexpressed HEK293 cell line; L-glutamate EC20; Fluo-4, FLIPR; read-out: Human mGluR5 PAM EC50. On the procedure:
Efficacy as a positive allosteric modulator (PAM) of mGluR5 of the compounds of the Examples was tested as follows:
Calcium Influx Assay Based on Fluorescence
Ca^2+ (calcium) influx assay is an experiment for measuring the activity of a positive allosteric modulator of mGluR5 receptor in which human mGluR5 receptor-overexpressed HEK293 cell line is used. The day before the experiment, cells were prepared in a cell culture medium (DMEM, 5% FBS) with the density of 80,000/well, and 100 μl of cells were dispensed into each well of a poly-D-lysine-coated 96-well plate. Cells were incubated in a 5% CO2, 37° C. incubator. The next day, the cell culture medium was removed from the plate, and 100 μl of 1× Fluo-4 calcium indicator diluted with a buffer (1× Hank's balanced salt solution, 20 mM HEPES, 2.5 mM probenecid) were added to each well and incubated at 37° C. for 1 hour. The compound stock solutions were prepared in 100% DMSO, and the compounds were serially diluted with a 1/4 dilution to 6 or 7 concentrations (final concentration was 10 μM to 10 nM). The diluted compound solutions were added to the plate with 0.1 to 0.2% of final DMSO concentration. 1 hour after the addition of Fluo-4 calcium indicator, L-glutamate (EC20 concentration) and the test compound solutions were added to the plate, and Ca^2+ reaction was then measured by FLIPR at room temperature. The activity of the compounds was standardized on the basis of the results of maximum value-minimum value of fluorescent reaction, and the activity value was calculated on the basis that no activity on glutamate EC20 is 0% and the reaction to glutamate maximum value is 100%.

human mGluR5 receptor, sequence (P41594 21-1212): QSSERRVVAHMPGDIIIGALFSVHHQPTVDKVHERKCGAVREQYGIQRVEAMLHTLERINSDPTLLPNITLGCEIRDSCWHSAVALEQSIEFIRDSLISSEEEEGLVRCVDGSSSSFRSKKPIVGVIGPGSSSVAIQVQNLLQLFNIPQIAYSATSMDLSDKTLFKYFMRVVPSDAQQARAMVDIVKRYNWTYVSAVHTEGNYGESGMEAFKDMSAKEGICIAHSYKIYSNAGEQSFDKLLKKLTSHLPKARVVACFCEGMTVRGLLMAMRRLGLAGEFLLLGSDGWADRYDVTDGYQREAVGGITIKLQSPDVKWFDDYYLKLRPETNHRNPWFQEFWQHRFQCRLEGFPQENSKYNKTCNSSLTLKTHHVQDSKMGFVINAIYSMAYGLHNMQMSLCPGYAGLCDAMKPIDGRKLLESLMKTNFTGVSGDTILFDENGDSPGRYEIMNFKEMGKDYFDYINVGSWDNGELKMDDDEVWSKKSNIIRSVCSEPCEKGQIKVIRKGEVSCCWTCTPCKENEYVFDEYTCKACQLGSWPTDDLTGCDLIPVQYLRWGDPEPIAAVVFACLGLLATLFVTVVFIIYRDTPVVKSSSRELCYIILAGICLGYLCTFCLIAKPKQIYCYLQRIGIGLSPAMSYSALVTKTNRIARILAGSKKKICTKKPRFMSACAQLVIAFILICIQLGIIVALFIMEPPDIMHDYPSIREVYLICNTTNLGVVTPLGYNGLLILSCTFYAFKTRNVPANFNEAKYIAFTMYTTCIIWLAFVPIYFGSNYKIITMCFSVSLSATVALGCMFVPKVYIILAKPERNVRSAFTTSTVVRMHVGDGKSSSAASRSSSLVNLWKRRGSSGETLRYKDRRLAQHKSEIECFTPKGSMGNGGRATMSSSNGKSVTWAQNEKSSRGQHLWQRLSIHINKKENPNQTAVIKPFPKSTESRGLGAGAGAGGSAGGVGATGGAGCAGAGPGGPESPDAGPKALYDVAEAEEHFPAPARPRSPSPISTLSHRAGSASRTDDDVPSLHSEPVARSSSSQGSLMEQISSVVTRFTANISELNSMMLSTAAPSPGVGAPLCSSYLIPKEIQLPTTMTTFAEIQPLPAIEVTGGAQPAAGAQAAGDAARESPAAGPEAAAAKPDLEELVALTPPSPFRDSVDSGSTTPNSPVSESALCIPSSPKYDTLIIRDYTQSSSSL

In the case of `Cc1cc(F)ccc1-c1cnc2nc(COc3cc(F)ccn3)cn2c1` [Example 116, 6-(4-fluoro-2-methyl-phenyl)-2-[(4-fluoro-2-pyridyl)oxymethyl)imidazo[1,2-a]pyrimidine], the EC50 is at most 100 nM.

Take `Cc1ccccc1-c1cnc2nc(COc3ccccc3)cn2c1` [Example 5, 6-(2-methylphenyl)-2-phenoxymethylimidazo[1,2-a]pyrimidine]: the EC50 is at most 100 nM.

In the case of `Cc1cc(F)ccc1-c1cnc2nc(COc3ccccn3)cn2n1` [Example 188, 2-(4-fluoro-2-methyl-phenyl)-6-(2-pyridyloxymethyl)imidazo[1,2-b][1,2,4]triazine], the EC50 is at most 100 nM.

On to `Cc1cc(F)ccc1-c1cnc2nc(COc3ccccc3)cn2c1` [Example 6, 6-(4-fluoro-2-methylphenyl)-2-phenoxymethylimidazo[1,2-a]pyrimidine], for which the EC50 is at most 100 nM.

Consider `Cc1ccccc1-c1cnc2nc(COc3ccnc(F)c3)cn2c1` [Example 168, 6-(2-methylphenyl)-2-(2-fluoropyridin-4-yloxymethyl)imidazo[1,2-a]pyrimidine], for which the EC50 was at most 100 nM.

Consider `Fc1ccc(-c2cnc3nc(COc4ccccc4)cn3c2)c(F)c1` [Example 3, 6-(2,4-difluorophenyl)-2-phenoxymethylimidazo[1,2-a]pyrimidine], for which the EC50 was at most 100 nM.

Regarding `Fc1cccc(OCc2cn3cc(-c4ccc(C(F)(F)F)nc4)cnc3n2)c1` [Example 80, 2-[(3-fluorophenoxy)methyl]-6-[6-(trifluoromethyl)-3-pyridyl)imidazo[1,2-a]pyrimidine], the EC50 was at most 100 nM.

Turning to `Fc1ccc(-c2cnc3nc(COc4ccccn4)cn3c2)nc1` [Example 132, 6-(5-fluoro-2-pyridyl)-2-(2-pyridyloxymethyl)imidazo[1,2-a]pyrimidine], the EC50 is at most 100 nM.

With `Cc1cc(F)ccc1-c1cnc2nc(COc3ccnc(F)c3)cn2c1` [Example 162, 6-(4-fluoro-2-methylphenyl)-2-(2-fluoropyridin-4-yloxymethyl)imidazo[1,2-a]pyrimidine], the EC50 was at most 100 nM.

Turning to `FCc1cc(F)ccc1-c1cnc2nc(COc3ccccn3)cn2c1` [Example 198, 6-[4-fluoro-2-(fluoromethyl)phenyl]-2-(2-pyridyloxymethyl)imidazo[1,2-a]pyrimidine], the concentration giving a half-maximal response (EC50) is at most 100 nM.

As for `Fc1ccc(OCc2cn3cc(-c4ccc(F)cc4Cl)cnc3n2)cc1` [Example 67, 6-(2-chloro-4-fluoro-phenyl)-2-[(4-fluorophenoxy)methyl]imidazo[1,2-a]pyrimidine], the EC50 was at most 100 nM.

Consider `OCc1cc(F)ccc1-c1cnc2nc(COc3ccccc3)cn2c1` [Example 25, 6-(4-fluoro-2-hydroxymethylphenyl)-2-phenoxymethylimidazo[1,2-a]pyrimidine], for which the half-maximal effective concentration (EC50) is at most 100 nM.

In the case of `Cc1cc(-c2cnc3nc(COc4ccc(F)cc4)cn3c2)cnc1F` [Example 91, 6-(6-fluoro-5-methyl-3-pyridyl)-2-[(4-fluorophenoxy)methyl]imidazo[1,2-a]pyrimidine], the EC50 is at most 100 nM.
